Assay results taken from ChEMBL document CHEMBL1135005, “Synthesis and biological evaluation of aristolactams” (Bioorg Med Chem Lett, 2002).
pIC50: −log10 of the molar value.

What follows are compounds tested on L1210 (assay: In vitro cytotoxic activity against L1210 murine leukemia cells). Settings: Mus musculus.
Type: functional, cell-based

First: COc1cc2cc3c4c(cccc4c2c(OC)c1OCc1ccccc1)C(=O)N3CCCC=O
Second: COc1cc2cc3c4c(cccc4c2c(OC)c1OCc1ccccc1)C(=O)N3CCCCN(C)C
The pIC50 of the first is 0.22 log units lower: 4.75 for the first, 4.97 for the second.

Compared with `CCOC(CCCN1C(=O)c2cccc3c2c1cc1cc(OC)c(OCc2ccccc2)c(OC)c13)OCC`, `COc1cc2c3c(cc4cc(OC)c(OCc5ccccc5)c(OC)c4c3c1)N(CCC=O)C2=O` is 0.66 log units higher in pIC50: 4.67 for the first, 5.33 for the second.

Going from `COc1cc2cc3c4c(cccc4c2c(OC)c1O)C(=O)N3CCCCN(C)C` to `COc1cc2c3c(cc4cc(OC)c(O)c(OC)c4c3c1)N(CCCN(C)C)C2=O`, the pIC50 falls from 5.74 to 5.27 (0.47 log units).

First: COc1cc2c3c(cc4ccc(O)cc4c3c1)N(CCCN(C)C)C2=O
Second: COc1ccc2cc3c4c(cc(OC)cc4c2c1)C(=O)N3CCC=O
The pIC50 of the first is 0.52 log units higher: 5.80 for the first, 5.28 for the second.

Going from `CN1C(=O)c2ccc(OCc3ccccc3)c3c2c1cc1cc(OCc2ccccc2)ccc13` to `COc1ccc(CN2C(=O)c3cc(OCc4ccccc4)cc4c3c2cc2cc(OC)c(OCc3ccccc3)c(OC)c24)cc1`, the pIC50 falls from 4.10 to under 4.00. The first is the more potent here.

`CCOC(CCN1C(=O)c2cc(OC)cc3c2c1cc1ccc(OC)cc13)OCC` and `COc1ccc(CN2C(=O)c3cc(OC)cc4c3c2cc2cc(OC)ccc24)cc1` cannot be ordered by pIC50: under 5.00 for the first, 4.18 for the second.

First: COc1cc2c(cc3c4c(cc5c(c42)OCO5)C(=O)N3CCC=O)c(OC)c1OC(C)C
Second: COc1cc2c(cc3c4c(cc5c(c42)OCO5)C(=O)N3CCCN(C)C)c(OC)c1OC(C)C
The pIC50 of the first is 0.26 log units lower: 5.11 for the first, 5.37 for the second. The second is the more potent here.

First: COc1ccc(CN2C(=O)c3cc(O)cc4c3c2cc2cc(OC)c(O)c(OC)c24)cc1
Second: COc1ccc(CN2C(=O)c3cc(OC)cc4c3c2cc2cc(OC)c(OC)c(OC)c24)cc1
The pIC50 of the first is higher: 5.59 for the first, under 5.00 for the second.

`CCN(CC)CCN1C(=O)c2cc(OC)cc3c2c1cc1cc(OC)c(O)c(OC)c13` and `COc1cc2c3c(cc4cc(OC)c(O)c(OC)c4c3c1)N(C)C2=O` are within 0.2 log units of each other in pIC50: 5.64 for the first, 5.80 for the second.

`COc1cc2c3c(cc4cc(OC)c(OCc5ccccc5)c(OC)c4c3c1)N(C)C2=O` and `CCOC(CCN1C(=O)c2cc3c(c4c2c1cc1c(OC)c(OC(C)C)c(OC)cc14)OCO3)OCC` cannot be ordered by pIC50: under 5.00 for the first, 4.79 for the second.
